Source: US6737383B1, “Herbicidal oxadiazolidines” (priority 1999, dated 2004)

How the values were obtained:
bedstraw = experiment: Test B pre/postemergence bedstraw; format: in vivo, Galium aparine; conditions: Preemergence
Method in brief: (§1)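 Response is a visual 0-to-10 score relative to untreated plants, where 0 means no effect and 10 means complete control, taken twelve to sixteen days after application. Treatments went onto soil at planting and onto foliage of 1- to 4-leaf plants, using a surfactant-containing non-phytotoxic solvent.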

blackgrass = experiment: Test B pre/postemergence blackgrass; format: in vivo, Alopecurus myosuroides
Method in brief: as §1

surinam grass = experiment: Test B pre/postemergence surinam grass; format: in vivo, Brachiaria decumbens
Method in brief: as §1

cocklebur = experiment: Test B pre/postemergence cocklebur; format: in vivo, Xanthium strumarium
Method in brief: as §1

corn = experiment: Test B pre/postemergence corn; format: in vivo, Zea mays; conditions: for Corn plant response rating: scale of 0 to 10 where 0 is no effect and 10 is complete control
Method in brief: as §1

crabgrass = experiment: Test B pre/postemergence crabgrass; format: in vivo, Digitaria sanguinalis; conditions: for Crabgrass plant response rating: scale of 0 to 10 where 0 is no effect and 10 is complete control
Method in brief: as §1

giant foxtail = experiment: Test B pre/postemergence giant foxtail; format: in vivo, Setaria faberii; conditions: for Giant foxtail plant response rating: scale of 0 to 10 where 0 is no effect and 10 is complete control
Method in brief: as §1

morningglory = experiment: Test B pre/postemergence morningglory; format: in vivo, Ipomoea hederacea; conditions: for Morningglory plant response rating: scale of 0 to 10 where 0 is no effect and 10 is complete control
Method in brief: as §1

velvetleaf = experiment: Test B pre/postemergence velvetleaf; format: in vivo, Abutilon theophrasti; conditions: for Velvetleaf plant response rating: scale of 0 to 10 where 0 is no effect and 10 is complete control
Method in brief: as §1

wheat = experiment: Test B pre/postemergence wheat; format: in vivo, Triticum aestivum; conditions: for Wheat plant response rating: scale of 0 to 10 where 0 is no effect and 10 is complete control
Method in brief: as §1

wild oat = experiment: Test B pre/postemergence wild oat; format: in vivo, Avena fatua; conditions: for Wild oats plant response rating: scale of 0 to 10 where 0 is no effect and 10 is complete control
Method in brief: as §1

purple nutsedge = experiment: Test B pre/postemergence purple nutsedge; format: in vivo, Cyperus rotundus; conditions: for Nutsedge plant response rating: scale of 0 to 10 where 0 is no effect and 10 is complete control
Method in brief: as §1

rice = experiment: Test B flood test rice; format: in vivo, Oryza sativa; conditions: Pre-emergence
Method in brief: (§2)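 Read-out is a visual response score from 0 (no effect) to 10 (complete control), assigned by comparison with untreated controls. Treatment was applied at the 2-leaf stage, and plants stayed in the greenhouse for twelve to sixteen days before scoring.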

smallflower flatsedge = experiment: Test B flood test smallflower flatsedge; format: in vivo, Cyperus difformis; conditions: Pre-emergence
Method in brief: as §2

duck salad = experiment: Test B flood test duck salad; format: in vivo, Heteranthera limosa; conditions: Pre-emergence
Method in brief: as §2

bamyardgrass = experiment: Test B flood test barnyardgrass; format: in vivo, Echinochloa crus-galli; conditions: Pre-emergence
Method in brief: as §2

[1] = Postemergence, Rate 125 g/ha, scale 0 to 10, 0 is no effect, 10 is complete control
[2] = Preemergence, Rate 62 g/ha, scale 0 to 10 (0 no effect, 10 complete control)
[3] = Preemergence, Rate 250 g/ha, scale of 0 to 10 where 0 is no effect and 10 is complete control
[4] = Preemergence, Rate 500 g/ha, scale of 0 to 10 where 0 is no effect and 10 is complete control
[5] = Rate 62 g/ha, Postemergence, scale of 0 to 10 where 0 is no effect and 10 is complete control
[6] = Rate 250 g/ha, Postemergence, scale of 0 to 10 where 0 is no effect and 10 is complete control
[7] = Rate 500 g/ha, Postemergence, scale 0 to 10, 0 no effect, 10 complete control
[8] = Rate 62 g/ha, flood test species, visual evaluation after twelve to sixteen days
[9] = Rate 125 g/ha, flood test species, scale 0 to 10 where 0 is no effect and 10 is complete control
[10] = Rate 250 g/ha, flood-test species, scale 0 to 10, 0 is no effect, 10 is complete control
[11] = Rate 500 g/ha, flood test species, scale 0 to 10 (0 no effect, 10 complete control)

CCC(CC)n1c(=O)on(C(=O)N(c2ccc(F)cc2F)C(C)C)c1=O [Compound 353]
Plant response rating, Bedstraw (bedstraw; Rate 62 g/ha, scale 0 to 10 (0 no effect, 10 complete control)): 0 | Bedstraw plant response rating (0 to 10 scale) (bedstraw; Rate 125 g/ha): 0 | Bedstraw plant response rating (bedstraw; Rate 500 g/ha, scale of 0 to 10 where 0 is no effect and 10 is complete control): 3 | Plant response rating, Blackgrass (blackgrass; [1]): 4 | Plant response rating, Blackgrass (blackgrass; [2]): 2 | Blackgrass plant response rating (blackgrass; [3]): 7 | Blackgrass plant response rating (blackgrass; [4]): 8 | Blackgrass plant response rating (blackgrass; [5]): 0 | Plant response rating, Blackgrass (blackgrass; [6]): 4 | Plant response rating, Blackgrass (blackgrass; [7]): 9 | Plant response rating, B. signalgrass (surinam grass; [1]): 0 | Plant response rating, B. signalgrass (surinam grass; [2]): 0 | B. signalgrass plant response rating (0 to 10 scale, 0 is no effect, 10 is complete control) (surinam grass; Preemergence, Rate 125 g/ha): 2 | B. signalgrass plant response rating (surinam grass; [3]): 5 | B. signalgrass plant response rating (surinam grass; [4]): 5 | B. signalgrass plant response rating (surinam grass; [5]): 0 | Plant response rating, B. signalgrass (surinam grass; [6]): 0 | Plant response rating, B. signalgrass (surinam grass; [7]): 0 | Plant response rating, Cocklebur (cocklebur; [1]): 0 | Plant response rating, Cocklebur (cocklebur; [2]): 0 | Cocklebur plant response rating (0 to 10 scale) (cocklebur; Preemergence, Rate 125 g/ha): 0 | Cocklebur plant response rating (cocklebur; [5]): 0 | Plant response rating, Cocklebur (cocklebur; [7]): 1 | Plant response rating, Corn (corn; [1]): 0 | Plant response rating, Corn (corn; [2]): 0 | Corn plant response rating (0 to 10 scale) (corn; Preemergence, Rate 125 g/ha): 3 | Corn plant response rating (corn; Preemergence, Rate 250 g/ha): 3 | Corn plant response rating (corn; Preemergence, Rate 500 g/ha): 7 | Corn plant response rating (corn; Rate 62 g/ha, Postemergence): 0 | Plant response rating, Corn (corn; [7]): 0 | Plant response rating, Crabgrass (crabgrass; [1]): 0 | Plant response rating, Crabgrass (crabgrass; [2]): 7 | Crabgrass plant response rating (0 to 10 scale) (crabgrass; Preemergence, Rate 125 g/ha): 9 | Crabgrass plant response rating (crabgrass; Preemergence, Rate 250 g/ha): 10 | Crabgrass plant response rating (crabgrass; Preemergence, Rate 500 g/ha): 10 | Crabgrass plant response rating (crabgrass; Rate 62 g/ha, Postemergence): 0 | Plant response rating, Crabgrass (crabgrass; [7]): 3 | Plant response rating, Giant foxtail (giant foxtail; [1]): 3 | Plant response rating, Giant foxtail (giant foxtail; [2]): 9 | Giant foxtail plant response rating (0 to 10 scale) (giant foxtail; Preemergence, Rate 125 g/ha): 10 | Giant foxtail plant response rating (giant foxtail; Preemergence, Rate 250 g/ha): 10 | Giant foxtail plant response rating (giant foxtail; Preemergence, Rate 500 g/ha): 10 | Giant foxtail plant response rating (giant foxtail; Rate 62 g/ha, Postemergence): 0 | Plant response rating, Giant foxtail (giant foxtail; [7]): 8 | Plant response rating, Morningglory (morningglory; [1]): 3 | Plant response rating, Morningglory (morningglory; [2]): 0 | Morningglory plant response rating (0 to 10 scale) (morningglory; Preemergence, Rate 125 g/ha): 0 | Morningglory plant response rating (morningglory; Preemergence, Rate 250 g/ha): 1 | Morningglory plant response rating (morningglory; Preemergence, Rate 500 g/ha): 1 | Morningglory plant response rating (morningglory; Rate 62 g/ha, Postemergence): 3 | Plant response rating, Morningglory (morningglory; [7]): 10 | Plant response rating, Velvetleaf (velvetleaf; [1]): 0 | Plant response rating, Velvetleaf (velvetleaf; [2]): 0 | Velvetleaf plant response rating (0 to 10 scale) (velvetleaf; Preemergence, Rate 125 g/ha): 1 | Velvetleaf plant response rating (velvetleaf; Preemergence, Rate 250 g/ha): 4 | Velvetleaf plant response rating (velvetleaf; Preemergence, Rate 500 g/ha): 6 | Velvetleaf plant response rating (velvetleaf; Rate 62 g/ha, Postemergence): 0 | Plant response rating, Velvetleaf (velvetleaf; [7]): 2 | Plant response rating, Wheat (wheat; [1]): 0 | Plant response rating, Wheat (wheat; [2]): 0 | Wheat plant response rating (0 to 10 scale) (wheat; Preemergence, Rate 125 g/ha): 0 | Wheat plant response rating (wheat; Preemergence, Rate 250 g/ha): 2 | Wheat plant response rating (wheat; Preemergence, Rate 500 g/ha): 2 | Wheat plant response rating (wheat; Rate 62 g/ha, Postemergence): 0 | Plant response rating, Wheat (wheat; [7]): 0 | Plant response rating, Wild oats (wild oat; [1]): 0 | Plant response rating, Wild oats (wild oat; [2]): 0 | Wild oats plant response rating (0 to 10 scale) (wild oat; Preemergence, Rate 125 g/ha): 1 | Wild oats plant response rating (wild oat; Preemergence, Rate 250 g/ha): 4 | Wild oats plant response rating (wild oat; Preemergence, Rate 500 g/ha): 6 | Wild oats plant response rating (wild oat; Rate 62 g/ha, Postemergence): 0 | Plant response rating, Wild oats (wild oat; [7]): 2 | Plant response rating, Nutsedge (purple nutsedge; [1]): 0 | Plant response rating, Nutsedge (purple nutsedge; [2]): 0 | Nutsedge plant response rating (0 to 10 scale) (purple nutsedge; Preemergence, Rate 125 g/ha): 0 | Nutsedge plant response rating (purple nutsedge; Preemergence, Rate 250 g/ha): 0 | Nutsedge plant response rating (purple nutsedge; Preemergence, Rate 500 g/ha): 0 | Nutsedge plant response rating (purple nutsedge; Rate 62 g/ha, Postemergence): 0 | Plant response rating, Nutsedge (purple nutsedge; [7]): 0 | Plant response rating, Rice (0 to 10 scale, 0 is no effect, 10 is complete control) (rice; [8]): 0 | Rice plant response rating (rice; [9]): 0 | Rice plant response rating (rice; [10]): 0 | Rice plant response rating (rice; [11]): 4 | Plant response rating, S. Flatsedge (0 to 10 scale, 0 is no effect, 10 is complete control) (smallflower flatsedge; [8]): 0 | S. Flatsedge plant response rating (smallflower flatsedge; [9]): 2 | S. Flatsedge plant response rating (smallflower flatsedge; [10]): 2 | S. Flatsedge plant response rating (smallflower flatsedge; [11]): 7 | Plant response rating, Ducksalad (0 to 10 scale, 0 is no effect, 10 is complete control) (duck salad; [8]): 0 | Ducksalad plant response rating (duck salad; [9]): 0 | Ducksalad plant response rating (duck salad; [10]): 0 | Ducksalad plant response rating (duck salad; [11]): 0 | Plant response rating, Barnyardgrass (0 to 10 scale, 0 is no effect, 10 is complete control) (bamyardgrass; [8]): 0 | Barnyardgrass plant response rating (bamyardgrass; [9]): 0 | Barnyardgrass plant response rating (bamyardgrass; [10]): 0 | Barnyardgrass plant response rating (bamyardgrass; [11]): 9
